# Measured values taken from patent publication US20250313604A1, “PEPTIDE PHARMACEUTICALS FOR INSULIN RESISTANCE” (Mederis Diabetes LLC, priority 2014, published 2025).
# Non-standard residues stand in square brackets, D forms with d. Residues, ends and D or L forms follow the SMILES beside them. *: point of attachment. GlcA(β-D,1-O-dodecyl) = CCCCCCCCCCCCO[C@@H]1O[C@H](C(=O)*)[C@@H](O)[C@H](O)[C@H]1O; αMeF = C[C@](N)(Cc1ccccc1)C(=O)O; Aib = CC(C)(N)C(=O)O
# Key:
# glucagon R = target: T1, glucagon R (Homo sapiens, UniProt P47871); assay: Cerep cellular assay, stimulation of cAMP levels, glucagon (human, cloned into CHO cells); type: cell-based
# T1 construct: host or cells: CHO cells
# T1 sequence (P47871 26-477): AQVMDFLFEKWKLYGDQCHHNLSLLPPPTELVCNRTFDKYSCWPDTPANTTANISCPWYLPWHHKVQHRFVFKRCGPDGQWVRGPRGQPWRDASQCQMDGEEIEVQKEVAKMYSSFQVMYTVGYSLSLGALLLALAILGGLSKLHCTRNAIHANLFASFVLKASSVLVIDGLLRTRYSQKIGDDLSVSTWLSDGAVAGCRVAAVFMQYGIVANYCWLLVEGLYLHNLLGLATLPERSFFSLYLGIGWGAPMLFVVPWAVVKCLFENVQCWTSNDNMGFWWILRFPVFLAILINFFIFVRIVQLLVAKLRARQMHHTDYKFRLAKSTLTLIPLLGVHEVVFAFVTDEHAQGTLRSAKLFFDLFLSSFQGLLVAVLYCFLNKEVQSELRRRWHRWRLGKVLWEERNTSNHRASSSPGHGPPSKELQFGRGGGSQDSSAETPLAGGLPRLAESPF
# Description: Compounds were weighed precisely in an amount of approximately 1 mg and assayed in standard cellular assays (Cerep SA). The readout is the amount of cAMP generated in the cells treated with the test compounds, in either agonist or antagonist mode. […] The assays are described in Chicchi, G. G., et al. (1997) J Biol Chem 272:7765-7769 and Runge, S., et al. (2003) Br J Pharmacol 138:787-794.
# [1] = Plasma protease stability; type: in vitro ADME; conditions: incubation at 30 degC, t=0-8 hrs, LC-MS (FIG. 8)
# Description: Standard and QC Sample Preparation: i. […] Make standard working solutions in 50% CH3CN with the stock solution. […] Spiked 10 μL of the working solutions into 90 μL blank plasma and vortex them, iv. […] Transfer the supernatant into an HPLC injection plate for loading on the HPLC column, vi.
# db/db mice = assay: In vivo assay in db/db mice (blood glucose, body weight, food consumption)
SMILES,GLCR cellular response (glucagon R),amount of intact compound in the human plasma versus time [1],"db/db mice - Mean Blood Glucose (db/db mice; 50 nmole/kg s.c., 0 hr)","db/db mice - Mean Blood Glucose (db/db mice; 50 nmole/kg s.c., 10 hr)","db/db mice - Mean Blood Glucose (db/db mice; 50 nmole/kg s.c., 24 hr)","db/db mice - Mean Blood Glucose (db/db mice; 50 nmole/kg s.c., 48 hr)","db/db mice - Mean Blood Glucose (db/db mice; 250 nmole/kg s.c., 0 hr)","db/db mice - Mean Blood Glucose (db/db mice; 250 nmole/kg s.c., 10 hr)","db/db mice - Mean Blood Glucose (db/db mice; 250 nmole/kg s.c., 24 hr)","db/db mice - Mean Blood Glucose (db/db mice; 250 nmole/kg s.c., 48 hr)"
"CCCCCCCCCCCCO[C@@H]1O[C@H](C(=O)NCCCC[C@H](NC(=O)C(C)(C)NC(=O)[C@H](CC(=O)O)NC(=O)[C@H](CC(C)C)NC(=O)[C@H](Cc2ccc(O)cc2)NC(=O)[C@H](CCCCN)NC(=O)[C@H](CO)NC(=O)[C@H](Cc2ccc(O)cc2)NC(=O)[C@H](CC(=O)O)NC(=O)[C@H](CO)NC(=O)[C@@H](NC(=O)[C@](C)(Cc2ccccc2)NC(=O)[C@@H](NC(=O)CNC(=O)[C@H](CCC(N)=O)NC(=O)C(C)(C)NC(=O)[C@@H](N)Cc2c[nH]cn2)[C@@H](C)O)[C@@H](C)O)C(N)=O)[C@@H](O)[C@H](O)[C@H]1O [EU-A391] (H-H[Aib]QGT[αMeF]TSDYSKYLD[Aib]K(GlcA(β-D,1-O-dodecyl))-NH2; N-terminus assumed)",does not change,,,,,,,,,
"CCCCCCCCCCCCO[C@@H]1O[C@H](CO[C@H]2O[C@H](C(=O)NCCCC[C@H](NC(=O)[C@@H](NC(=O)[C@H](Cc3ccccc3)NC(=O)[C@H](CCC(=O)O)NC(=O)[C@@H]3CCCCNC(=O)CC[C@H](NC(=O)[C@H](CC(=O)O)NC(=O)[C@H](CC(C)C)NC(=O)[C@H](Cc4ccc(O)cc4)NC(=O)[C@H](CCCCN)NC(=O)[C@H](CO)NC(=O)[C@H](Cc4ccc(O)cc4)NC(=O)[C@H](CC(=O)O)NC(=O)[C@H](CO)NC(=O)[C@@H](NC(=O)[C@H](Cc4ccccc4)NC(=O)[C@@H](NC(=O)CNC(=O)[C@H](CCC(N)=O)NC(=O)C(C)(C)NC(=O)[C@@H](N)Cc4c[nH]cn4)[C@@H](C)O)[C@@H](C)O)C(=O)N[C@@H](CCC(N)=O)C(=O)N[C@@H](C)C(=O)N[C@@H](C)C(=O)N3)[C@@H](C)CC)C(=O)N[C@@H](Cc3c[nH]c4ccccc34)C(=O)N[C@@H](CC(C)C)C(=O)N[C@@H](CC(C)C)C(=O)N[C@@H](CCC(N)=O)C(=O)N[C@H](C(N)=O)[C@@H](C)O)[C@H](O)[C@H](O)[C@H]2O)[C@@H](O)[C@H](O)[C@H]1O [EU-A1023, His1-Aib2-Gln3-Gly4-Thr5-Phe6-Thr7-Ser8-Asp9-Tyr10-Ser11-Lys12-Tyr13-Leu14-Asp15-Glu*16-Gln17 Ala18-Ala19-Lys*20-Glu21-Phe22-Ile23-Lys (N-omega (1-dodecyl beta-D-melibiouronyl)) 24-Trp25-Leu26-Leu27-Gln28-Thr29-NH2]",,essentially no change over 8 hrs,507 mg/dL,310 mg/dL,355 mg/dL,375 mg/dL,508 mg/dL,264 mg/dL,194 mg/dL,375 mg/dL
